{"source": "ChEMBL document CHEMBL1131961", "about": "“Protein kinase C modulators bearing dicarba-CLOSO-dodecaborane as a hydrophobic pharmacophore” (Bioorg Med Chem Lett, 1999)", "key": {"HL-60": {"system": "HL-60", "assay": "Inhibition of HL-60 monocyte cell proliferation", "assay_type": "functional", "settings": "Homo sapiens, read-out: ED50 (the source's name)"}, "[1]": {"target": "Protein kinase C delta type (Homo sapiens, UniProt Q05655)", "sequence (Q05655 whole entry)": "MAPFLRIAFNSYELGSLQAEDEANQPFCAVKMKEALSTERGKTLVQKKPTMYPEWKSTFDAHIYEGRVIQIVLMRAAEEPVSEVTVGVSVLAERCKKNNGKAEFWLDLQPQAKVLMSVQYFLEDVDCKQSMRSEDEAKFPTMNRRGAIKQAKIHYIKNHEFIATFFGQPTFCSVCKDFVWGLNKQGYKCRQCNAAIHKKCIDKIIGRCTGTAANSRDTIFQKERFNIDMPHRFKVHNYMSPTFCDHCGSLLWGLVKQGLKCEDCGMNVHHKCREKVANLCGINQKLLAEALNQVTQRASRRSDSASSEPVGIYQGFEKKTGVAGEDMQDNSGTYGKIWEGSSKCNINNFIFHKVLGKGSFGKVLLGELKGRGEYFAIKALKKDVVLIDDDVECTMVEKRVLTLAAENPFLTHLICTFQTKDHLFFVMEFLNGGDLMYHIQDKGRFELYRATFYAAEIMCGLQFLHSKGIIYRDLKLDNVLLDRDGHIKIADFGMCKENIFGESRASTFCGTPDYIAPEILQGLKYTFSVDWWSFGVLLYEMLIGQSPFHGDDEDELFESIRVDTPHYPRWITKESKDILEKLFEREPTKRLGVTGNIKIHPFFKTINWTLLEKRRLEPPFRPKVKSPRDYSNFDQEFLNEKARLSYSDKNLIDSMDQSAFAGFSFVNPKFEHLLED", "assay": "Displacement of [3H]-PDBu from human recombinant Protein kinase C delta"}}}
{"compound": "CCCCCCCCCCc1ccc2c(c1)N(C)[C@@H](C(C)C)C(=O)N[C@H](CO)C2", "values": [{"measurement": "EC50", "setting": "HL-60", "value": 5, "unit": "nM"}, {"measurement": "Ki", "setting": "[1]", "value": 1.8, "unit": "nM"}]}
